Assay results as given in the NIST ThermoML archive (doi:10.1021/je300652k).

Details: Liquid, Pulse-echo method

FC(F)=C(F)C(F)(F)F [hexafluoropropene]
Details | speed of sound [m/s]
253.27 K, 1150 kPa | 575.6
253.27 K, 10940 kPa | 645.3
253.27 K, 25910 kPa | 728.8
253.27 K, 52820 kPa | 844.3
253.27 K, 75030 kPa | 921.1
253.27 K, 100630 kPa | 997.3
253.27 K, 125810 kPa | 1063
253.27 K, 151420 kPa | 1123.6
253.27 K, 174830 kPa | 1174.3
253.27 K, 200450 kPa | 1224.7
253.27 K, 250580 kPa | 1315.5
253.27 K, 299650 kPa | 1393.8
253.27 K, 350190 kPa | 1468.5
253.27 K, 400740 kPa | 1535.4
273.17 K, 1130 kPa | 488.3
273.17 K, 10400 kPa | 567.9
273.17 K, 25040 kPa | 660.8
273.17 K, 50150 kPa | 779.5
273.17 K, 75280 kPa | 871.7
273.17 K, 100230 kPa | 949
273.17 K, 125430 kPa | 1017.1
273.17 K, 150270 kPa | 1077.5
273.17 K, 175810 kPa | 1133.8
273.17 K, 200700 kPa | 1184.6
273.17 K, 250800 kPa | 1276.7
273.17 K, 300450 kPa | 1358.2
273.17 K, 350820 kPa | 1432.3
273.17 K, 400090 kPa | 1499.6
288.15 K, 1160 kPa | 424.2
288.15 K, 5200 kPa | 468.9
288.15 K, 10130 kPa | 513.8
288.15 K, 25190 kPa | 618
288.15 K, 50080 kPa | 741.2
288.15 K, 75440 kPa | 837.6
288.15 K, 100170 kPa | 916.1
288.15 K, 125510 kPa | 986.4
288.15 K, 150630 kPa | 1048.4
288.15 K, 175250 kPa | 1103.9
288.15 K, 200700 kPa | 1156.6
288.15 K, 250380 kPa | 1249
288.15 K, 300040 kPa | 1331.1
288.15 K, 350970 kPa | 1407.7
288.15 K, 400410 kPa | 1475.2
303.15 K, 1990 kPa | 370.7
303.15 K, 10090 kPa | 463.9
303.15 K, 25160 kPa | 576.7
303.15 K, 50920 kPa | 709.3
303.15 K, 75370 kPa | 804.5
303.15 K, 100560 kPa | 886.5
303.15 K, 125410 kPa | 956.2
303.15 K, 150900 kPa | 1020.1
303.15 K, 175340 kPa | 1075.6
303.15 K, 200830 kPa | 1129
303.15 K, 250190 kPa | 1221.9
303.15 K, 300750 kPa | 1306.5
303.15 K, 350300 kPa | 1381.1
303.15 K, 400020 kPa | 1450.2
323.18 K, 2300 kPa | 288.3
323.18 K, 10550 kPa | 404.9
323.18 K, 28790 kPa | 547
323.18 K, 50380 kPa | 664.6
323.18 K, 75340 kPa | 767.2
323.18 K, 101090 kPa | 852.8
323.18 K, 125070 kPa | 921.8
323.18 K, 150670 kPa | 987.4
323.18 K, 175680 kPa | 1045.2
323.18 K, 200750 kPa | 1098.6
323.18 K, 250620 kPa | 1193.8
323.18 K, 300400 kPa | 1278
323.18 K, 350810 kPa | 1355.4
323.18 K, 400580 kPa | 1424.9
343.19 K, 4760 kPa | 245.5
343.19 K, 8270 kPa | 311.3
343.19 K, 10440 kPa | 341.8
343.19 K, 50540 kPa | 627.2
343.19 K, 75610 kPa | 730.9
343.19 K, 100650 kPa | 818.3
343.19 K, 125170 kPa | 890.4
343.19 K, 150340 kPa | 956.2
343.19 K, 175160 kPa | 1014.7
343.19 K, 200290 kPa | 1069
343.19 K, 250220 kPa | 1165.9
343.19 K, 300620 kPa | 1252
343.19 K, 350100 kPa | 1327.9
343.19 K, 400370 kPa | 1399.8
363.15 K, 10450 kPa | 287
363.15 K, 25500 kPa | 442
363.15 K, 50520 kPa | 592.9
363.15 K, 75490 kPa | 700.6
363.15 K, 100300 kPa | 787.2
363.15 K, 125230 kPa | 861.9
363.15 K, 150340 kPa | 928.6
363.15 K, 175590 kPa | 988.8
363.15 K, 200320 kPa | 1042.8
363.15 K, 250610 kPa | 1141.2
363.15 K, 300360 kPa | 1226.7
363.15 K, 350690 kPa | 1305.3
363.15 K, 400260 kPa | 1376
383.16 K, 15690 kPa | 310.6
383.16 K, 25690 kPa | 407.4
383.16 K, 50530 kPa | 562.3
383.16 K, 75940 kPa | 673.9
383.16 K, 100500 kPa | 761.1
383.16 K, 125630 kPa | 837.2
383.16 K, 150460 kPa | 903.4
383.16 K, 175770 kPa | 964.4
383.16 K, 200740 kPa | 1019.4
383.16 K, 250260 kPa | 1116.8
383.16 K, 300690 kPa | 1204.6
383.16 K, 350280 kPa | 1282.6
383.16 K, 400510 kPa | 1354.3
403.14 K, 16670 kPa | 288.3
403.14 K, 25610 kPa | 375.7
403.14 K, 50890 kPa | 537.5
403.14 K, 75640 kPa | 647.4
403.14 K, 100060 kPa | 737.1
403.14 K, 125630 kPa | 813.6
403.14 K, 150360 kPa | 880.3
403.14 K, 175620 kPa | 941.6
403.14 K, 200670 kPa | 997.2
403.14 K, 250500 kPa | 1096
403.14 K, 300660 kPa | 1183.8
403.14 K, 350610 kPa | 1262.3
403.14 K, 400280 kPa | 1333.6
423.15 K, 19600 kPa | 293.5
423.15 K, 25100 kPa | 345.1
423.15 K, 50800 kPa | 513
423.15 K, 75400 kPa | 623.9
423.15 K, 100710 kPa | 715.4
423.15 K, 125320 kPa | 791.3
423.15 K, 150160 kPa | 858.8
423.15 K, 175410 kPa | 920.3
423.15 K, 200520 kPa | 976.3
423.15 K, 250420 kPa | 1075.9
423.15 K, 300390 kPa | 1163.6
423.15 K, 350600 kPa | 1243
423.15 K, 400920 kPa | 1315.6
448.15 K, 25130 kPa | 318.1
448.15 K, 50710 kPa | 485
448.15 K, 75240 kPa | 596.6
448.15 K, 100750 kPa | 689.4
448.15 K, 125710 kPa | 766.5
448.15 K, 150770 kPa | 834.5
448.15 K, 175320 kPa | 894.5
448.15 K, 200820 kPa | 951.6
448.15 K, 250910 kPa | 1051.8
448.15 K, 300780 kPa | 1139.3
448.15 K, 350710 kPa | 1218.3
448.15 K, 400820 kPa | 1291.1
473.14 K, 25160 kPa | 298.7
473.14 K, 50460 kPa | 462.3
473.14 K, 75570 kPa | 576.7
473.14 K, 100220 kPa | 666.6
473.14 K, 125570 kPa | 745.3
473.14 K, 150690 kPa | 814
473.14 K, 175720 kPa | 875.3
473.14 K, 200800 kPa | 931.7
473.14 K, 250600 kPa | 1031.5
473.14 K, 300640 kPa | 1119.7
473.14 K, 350560 kPa | 1199
473.14 K, 400750 kPa | 1272
